# Measurements: patent US20130310379A1, “MODULATORS OF METHYL MODIFYING ENZYMES, COMPOSITIONS AND USES THEREOF” (CONSTELLATION PHARMACEUTICALS, priority 2010, published 2013)
# pIC50: −log10 of the molar value.
# Biological target: EZH2 (Homo sapiens, UniProt Q15910)
# Test: EZH2 assay: rPRC2 with biotinylated oligonucleosome substrates and 3H SAM, FlashPlate scintillation counting, IC50
# Type: biochemical
# Settings: rPRC2, biotinylated oligonucleosome substrates, 3H SAM; read-out: EZH2 IC50
# Protocol: Assays were carried out by mixing rPRC2 together with biotinylated oligonucleosome substrates in the presence of the radio-labeled enzyme co-factor, S-adenosyl-L-methionine (^3H SAM) (Perkin Elmer) and monitoring the enzymatically mediated transfer of tritiated methyl groups from ^3H SAM to histone lysine residues. The amount of resulting tritated methylhistone product was measured by first capturing the biotinylated oligonuclesomes in streptavidin (SAV) coated FlashPlates (Perkin Elmer), followed by a wash step to remove un-reacted ^3H SAM, and then counting on a TopCount NXT 384 well plate scintillation counter (Perkin Elmer). The final assay conditions for EZH2 were as follows: 50 mM Tris Buffer pH 8.5, 1 mM DTT, 69 uM Brij-35 detergent, 5.0 mM MgCl2, 0.1 mg/mL BSA, 0.2 uM ^3H SAM, 0.2 uM biotinylated oligonucleosomes, 3.6 uM H3K27me3 peptide and 2 nM EZH2.
# Compound IC50 measurements were obtained as follows: Compounds were first dissolved in 100% DMSO as 10 mM stock solutions. […] A 12.5 uL volume of the HMT enzyme, H3K27me3 peptide and oligonucleosome substrate in assay buffer was added to each well of the assay plate using a Multidrop Combi (ThermoFisher). Compounds were pre-incubated with the enzyme for 20 min, followed by initiation of the methyltransferase reaction by addition of 12.5 uL of 3H SAM in assay buffer (final volume=25 uL). The final concentrations of compounds ranged from a top default concentration of 80 uM down to 0.16 uM in ten 2-fold dilution steps. Reactions were carried out for 60 minutes and quenched with 20 uL per well of 1.96 mM SAH, 50 mM Tris PH 8.5, 200 mM EDTA. Stopped reactions were transferred to SAV coated Flashplates (Perkin Elmer), incubated for 120 min, washed with a plate washer, and then read on the TopCount NXT (1.0 min/well) to measure the amount of methylhistone product formed during the reaction. The amount of methylhistone product was compared with the amount of product formed in the 0% and 100% inhibition control wells allowing the calculation of % Inhibition in the presence of the individual compounds at various concentrations. IC50's were computed using a 4 parameter fit non-linear curve fitting software package (XLFIT, part of the database package, ActivityBase (IDBS)) where the four parameters were IC50, Hill slope, pre-transitional baseline (0% INH), and post-transitional baseline (100% INH); with the latter two parameters being fixed to zero and 100%, respectively, by default.
# Sequence of EZH2 (Q15910 whole entry): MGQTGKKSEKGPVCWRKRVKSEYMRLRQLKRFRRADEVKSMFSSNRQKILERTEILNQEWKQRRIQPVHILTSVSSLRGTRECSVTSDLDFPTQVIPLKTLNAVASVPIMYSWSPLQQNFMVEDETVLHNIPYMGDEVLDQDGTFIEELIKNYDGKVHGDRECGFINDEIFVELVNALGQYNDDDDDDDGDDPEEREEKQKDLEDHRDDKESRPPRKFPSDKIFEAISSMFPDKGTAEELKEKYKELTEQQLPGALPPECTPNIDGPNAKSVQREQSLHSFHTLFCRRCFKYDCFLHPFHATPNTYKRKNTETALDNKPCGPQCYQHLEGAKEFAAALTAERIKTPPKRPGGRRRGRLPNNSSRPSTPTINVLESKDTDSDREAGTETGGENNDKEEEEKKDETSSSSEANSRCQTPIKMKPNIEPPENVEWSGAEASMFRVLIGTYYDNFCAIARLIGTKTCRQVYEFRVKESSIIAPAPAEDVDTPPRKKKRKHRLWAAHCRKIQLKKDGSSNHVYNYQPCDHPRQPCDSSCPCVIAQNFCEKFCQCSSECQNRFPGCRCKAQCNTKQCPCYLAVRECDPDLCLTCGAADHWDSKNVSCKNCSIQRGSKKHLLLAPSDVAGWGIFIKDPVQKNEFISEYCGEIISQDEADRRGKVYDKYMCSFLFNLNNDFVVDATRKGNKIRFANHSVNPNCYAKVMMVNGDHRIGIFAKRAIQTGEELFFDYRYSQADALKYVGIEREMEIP
# Sequence of EZH2 (O75530 whole entry partner): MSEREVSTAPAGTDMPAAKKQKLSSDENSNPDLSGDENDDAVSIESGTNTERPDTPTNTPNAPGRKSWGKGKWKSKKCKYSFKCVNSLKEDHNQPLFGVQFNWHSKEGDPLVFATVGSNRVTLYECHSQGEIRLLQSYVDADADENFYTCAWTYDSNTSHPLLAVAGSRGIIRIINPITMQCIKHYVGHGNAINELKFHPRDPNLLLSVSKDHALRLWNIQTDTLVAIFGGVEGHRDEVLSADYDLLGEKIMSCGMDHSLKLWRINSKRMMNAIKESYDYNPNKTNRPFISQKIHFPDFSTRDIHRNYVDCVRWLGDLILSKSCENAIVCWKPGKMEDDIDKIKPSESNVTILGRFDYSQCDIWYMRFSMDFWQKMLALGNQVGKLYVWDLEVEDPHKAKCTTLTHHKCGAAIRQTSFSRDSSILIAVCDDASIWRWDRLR
# Sequence of EZH2 (Q15022 whole entry partner): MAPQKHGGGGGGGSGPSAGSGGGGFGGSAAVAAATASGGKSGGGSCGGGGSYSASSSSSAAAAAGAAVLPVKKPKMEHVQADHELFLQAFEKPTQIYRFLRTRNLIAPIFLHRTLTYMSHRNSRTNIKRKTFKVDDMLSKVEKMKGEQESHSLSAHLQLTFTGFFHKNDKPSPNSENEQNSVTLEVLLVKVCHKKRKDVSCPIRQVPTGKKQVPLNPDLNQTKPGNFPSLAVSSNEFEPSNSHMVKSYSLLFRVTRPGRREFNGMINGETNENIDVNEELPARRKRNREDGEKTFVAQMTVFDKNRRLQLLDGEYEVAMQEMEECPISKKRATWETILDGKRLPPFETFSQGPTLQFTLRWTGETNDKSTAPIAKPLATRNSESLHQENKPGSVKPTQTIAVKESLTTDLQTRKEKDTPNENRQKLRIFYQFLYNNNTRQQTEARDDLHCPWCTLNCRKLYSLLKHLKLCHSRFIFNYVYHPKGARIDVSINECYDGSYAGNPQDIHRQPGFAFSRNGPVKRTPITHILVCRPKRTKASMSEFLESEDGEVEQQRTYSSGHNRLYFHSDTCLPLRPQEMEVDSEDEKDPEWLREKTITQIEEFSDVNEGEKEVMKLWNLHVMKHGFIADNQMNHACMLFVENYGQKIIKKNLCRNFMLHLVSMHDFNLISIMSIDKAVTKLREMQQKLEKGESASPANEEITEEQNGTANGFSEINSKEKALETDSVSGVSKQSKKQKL
row,SMILES,pIC50
1,CC1(C)CC(NC(=O)c2ccc(-c3ccc4cnccc4c3)c(Cl)c2)CC(C)(C)N1 [Compound I-376],4.10 to 4.70
2,CC1(C)CC(NC(=O)c2ccc(Oc3ccccc3)c(F)c2)CC(C)(C)N1 [Compound I-148],4.70 to 5.30
3,CC1(C)CC(NC(=O)c2ccc(Oc3ccccc3C#N)c(C3CC3)c2)CC(C)(C)N1 [Compound I-221],> 5.30
4,CN1C(C)(C)CC(NC(=O)c2ccc(Oc3ccccc3C#N)c(Cl)c2)CC1(C)C [Compound I-289],> 5.30
5,CC1(C)CC(NC(=O)c2ccc(COc3cccc(F)c3)cc2)CC(C)(C)N1 [Compound I-59],4.10 to 4.70
6,CC1(C)CC(NC(=O)c2ccc(Oc3ccccc3C(=O)O)c(Cl)c2)CC(C)(C)N1 [Compound I-353],< 4.10
7,CC1(C)CC(NC(=O)c2ccc(Oc3ccccc3-c3ncco3)c(Cl)c2)CC(C)(C)N1 [Compound I-253],> 5.30
8,CC1(C)CC(NC(=O)c2ccc(Oc3cccc(C(C)(C)C#N)c3)c(Cl)c2)CC(C)(C)N1 [Compound I-462],4.10 to 4.70
9,CC1(C)CC(NC(=O)c2ccc(OC(C#N)c3ccccc3)c(Cl)c2)CC(C)(C)N1 (stereo not shown) [Compound I-421],< 4.10
10,CC1(C)CC(NC(=O)c2ccc(N3CCOc4ccccc43)c(Cl)c2)CC(C)(C)N1 [Compound I-384],4.10 to 4.70
11,COC(=O)c1cccc(COc2ccc(C(=O)NC3CC(C)(C)NC(C)(C)C3)cc2)c1 [Compound I-53],4.10 to 4.70
12,CC1(C)CC(NC(=O)c2ccc(Oc3ccccc3-c3ccsc3)c(Cl)c2)CC(C)(C)N1 [Compound I-252],> 5.30
13,CC1(C)CC(NC(=O)c2ccc(Oc3cccc(-c4cnn(CC(=O)O)c4)c3C#N)c(Cl)c2)CC(C)(C)N1 [Compound I-374],> 5.30
14,N#CCN1CCC(NC(=O)c2ccc(Oc3cccc(-c4ccnnc4)c3C#N)c(Cl)c2)CC1 [Compound I-475],< 4.10
15,CC1(C)CC(NC(=O)c2ccc(Oc3cccc(CN4CCCC4=O)c3)c(Cl)c2)CC(C)(C)N1 [Compound I-447],4.70 to 5.30
16,CC1(C)CC(NC(=O)c2ccc(OCc3ccccc3)cc2)CC(C)(C)N1 [Compound I-75],< 4.10
17,Cc1cc(C(=O)NC2CC(C)(C)NC(C)(C)C2)ccc1Oc1ccccc1 [Compound I-24],4.10 to 4.70
18,CC1(C)CC(NC(=O)c2ccc(COc3ccccc3C#N)cc2)CC(C)(C)N1 [Compound I-240],< 4.10
19,CC(=O)NCc1cccc(Oc2ccc(C(=O)NC3CC(C)(C)NC(C)(C)C3)cc2Cl)c1 [Compound I-430],> 5.30
20,CC1(C)CC(NC(=O)c2ccc([S+]([O-])c3ccccc3)cc2)CC(C)(C)N1 (stereo not shown) [Compound I-355],< 4.10
21,COc1cc(Oc2ccccc2)ccc1C(=O)NC1CC(C)(C)NC(C)(C)C1 [Compound I-204],< 4.10
22,CNC(=O)Cn1cc(-c2cccc(Oc3ccc(C(=O)NC4CC(C)(C)NC(C)(C)C4)cc3Cl)c2C#N)cn1 [Compound I-387],> 5.30

row,SMILES,pIC50
1,CC1(C)CC(NC(=O)c2ccc(Oc3ccccc3C#N)c(-c3ccccc3)c2)CC(C)(C)N1 [Compound I-197],> 5.30
2,CC1(C)CC(NC(=O)c2ccc(Oc3ccccc3C#N)cc2F)CC(C)(C)N1 [Compound I-245],4.70 to 5.30
3,Cc1noc(C)c1-c1cccc(Oc2ccc(C(=O)NC3CC(C)(C)NC(C)(C)C3)cc2Cl)c1C#N [Compound I-463],> 5.30
4,CC1(C)CC(NC(=O)N2CCC(c3ccccc3)C2)CC(C)(C)N1 (stereo not shown) [Compound I-470],< 4.10
5,CC1(C)CC(NC(=O)c2ccc(Oc3ccccc3C(N)=O)c(Br)c2)CC(C)(C)N1 [Compound I-388],4.70 to 5.30
6,CNC(=O)c1ccccc1Oc1ccc(C(=O)NC2CC(C)(C)NC(C)(C)C2)cc1Cl [Compound I-285],4.10 to 4.70
7,CC1(C)CC(NC(=O)c2ccc(Oc3ccccc3C(=O)N3CCCC3)c(Cl)c2)CC(C)(C)N1 [Compound I-233],< 4.10
8,Cc1cccc(Oc2ccc(C(=O)NC3CC(C)(C)NC(C)(C)C3)cc2Cl)c1C#N [Compound I-309],> 5.30
9,CC1(C)CC(NC(=O)c2ccc(Oc3ccccc3CN3CCCC3)cc2)CC(C)(C)N1 [Compound I-250],4.10 to 4.70
10,"Cc1cccc(OCc2ccc(C(=O)NC3CC(C)(C)NC(C)(C)C3)cc2)n1 [Compound I-85, 4-((6-methylpyridin-2-yloxy)methyl)-N-(2,2,6,6-tetramethylpiperidin-4-yl)benzamide]",< 4.10
11,Cc1ccc(-c2cccc(Oc3ccc(C(=O)NC4CC(C)(C)NC(C)(C)C4)cc3Cl)c2C#N)s1 [Compound I-323],> 5.30
12,CC1(C)CC(NC(=O)c2ccc(COc3cccc(-c4ccc(F)nc4)c3)cc2)CC(C)(C)N1 [Compound I-19],4.70 to 5.30
13,CC1(C)CC(NC(=O)c2ccc(Oc3cccnc3C#N)c(Br)c2)CC(C)(C)N1 [Compound I-219],> 5.30
14,COc1cc(-c2cccc(Oc3ccc(C(=O)NC4CC(C)(C)NC(C)(C)C4)cc3Cl)c2C#N)ccn1 [Compound I-500],> 5.30
15,CC1(C)CC(NC(=O)c2ccc(Oc3cccc4c(Cl)nccc34)cc2)CC(C)(C)N1 [Compound I-314],4.70 to 5.30
16,CC1(C)CC(NC(=O)c2ccc(Oc3ccccc3Br)cc2)CC(C)(C)N1 [Compound I-16],4.70 to 5.30
17,CC1(C)CC(NC(=O)c2ccc(Oc3cccc(CC#N)c3-c3cncnc3)c(Cl)c2)CC(C)(C)N1 [Compound I-444],> 5.30
18,Cc1ncccc1-c1ccccc1Oc1ccc(C(=O)NC2CC(C)(C)NC(C)(C)C2)cc1Cl [Compound I-293],4.70 to 5.30
19,CC1(C)CC(NC(=O)c2ccc(OC3CCCNC3)c(Cl)c2)CC(C)(C)N1 (stereo not shown) [Compound I-393],< 4.10
20,CN1CCC(NC(=O)c2ccc(Oc3cccc(-c4ccnnc4)c3C#N)c(Cl)c2)CC1 [Compound I-465],< 4.10
21,CC1(C)CC(NC(=O)c2ccc(Oc3cccc(-c4ccn[nH]4)c3C#N)c(Cl)c2)CC(C)(C)N1 [Compound I-338],> 5.30
22,CC1(C)CC(NC(=O)c2ccc(Oc3ccccc3C(N)=O)c(Cl)c2)CC(C)(C)N1 [Compound I-284],4.70 to 5.30

row,SMILES,pIC50
1,CC1(C)CC(NC(=O)c2ccc(Oc3cccc(-c4ccc(N5CCNCC5)nc4)c3C#N)c(Cl)c2)CC(C)(C)N1 [Compound I-549],> 5.30
2,CC1(C)CC(NC(=O)c2ccc(Oc3ccc([N+](=O)[O-])cc3)cc2)CC(C)(C)N1 [Compound I-73],< 4.10
3,CNC(=O)CCc1cccc(Oc2ccc(C(=O)NC3CC(C)(C)NC(C)(C)C3)cc2Cl)c1C#N [Compound I-551],> 5.30
4,Cc1cccc(C)c1OCc1ccc(C(=O)NC2CC(C)(C)NC(C)(C)C2)cc1 [Compound I-23],4.10 to 4.70
5,CC1(C)CC(NC(=O)c2ccc(Oc3cccc4cnccc34)c(Br)c2)CC(C)(C)N1 [Compound I-291],> 5.30
6,CC1(C)CC(NC(=O)N2CCC(Oc3ccccc3C#N)CC2)CC(C)(C)N1 [Compound I-442],< 4.10
7,CC1(C)CC(NC(=O)c2ccc(C(=O)Nc3ccccc3)cc2)CC(C)(C)N1 [Compound I-160],< 4.10
8,CC(Oc1ccccc1Oc1ccc(C(=O)NC2CC(C)(C)NC(C)(C)C2)cc1)c1ccccc1 (stereo not shown) [Compound I-208],4.70 to 5.30
9,COc1cc(Oc2ccccc2C#N)ccc1C(=O)NC1CC(C)(C)NC(C)(C)C1 [Compound I-191],< 4.10
10,CC1(C)CC(NC(=O)c2ccc(C(C)(C)C)cc2)CC(C)(C)N1 [Compound I-138],< 4.10
11,O=C(NC1CCN(C(=O)c2ccccc2)CC1)c1ccc(Oc2ccccc2)cc1 [Compound I-116],< 4.10
12,Cc1ccccc1Oc1ccc(C(=O)NC2CC(C)(C)NC(C)(C)C2)cc1Cl [Compound I-325],4.70 to 5.30
13,CC1(C)CC(NC(=O)c2ccc(Oc3cccc(-c4cn[nH]c4)c3C#N)c(C3CC3)c2)CC(C)(C)N1 [Compound I-439],> 5.30
14,CC1(C)CC(NC(=O)c2ccc(COc3cccc(-c4cccnc4)c3)cc2)CC(C)(C)N1 [Compound I-7],4.70 to 5.30
15,CC1(C)CC(NC(=O)c2ccc(Oc3ccccc3C#N)c(C3CCCC3)c2)CC(C)(C)N1 [Compound I-238],4.70 to 5.30
16,CCc1ccccc1Oc1ccc(C(=O)NC2CC(C)(C)NC(C)(C)C2)cc1 [Compound I-35],4.10 to 4.70
17,CC1(C)CC(NC(=O)c2ccc(Oc3ccccc3-c3ccccn3)c(Cl)c2)CC(C)(C)N1 [Compound I-225],4.70 to 5.30
18,CC1(C)CC(NC(=O)c2ccc(COc3cccc(-c4cnc(N)nc4)c3)cc2)CC(C)(C)N1 [Compound I-3],> 5.30
19,CN1CCC(NC(=O)c2ccc(Oc3ccccc3)cc2)CC1 [Compound I-113],< 4.10
20,CNc1cccc(Oc2ccc(C(=O)NC3CC(C)(C)NC(C)(C)C3)cc2Cl)c1C#N [Compound I-348],> 5.30
